# Test results published in patent US5334595A, “Pyrazoloquinolones as anticancer agents” (priority 1992, dated 1994).
# What was measured:
# Design in all cases: species or system mice
# [1] = In vivo antitumor assay, Mam16C/ADR; details: mouse, in vivo, drug iv, qd 1,3,5, exp 1120A, footnote 2: 2 lower doses equally active to modestly more active
# Description: (§1) Mice: Inbred: C3H/He and NCR-nu; and Hybrids: B6D2F1 (C57BL/6 females×DBA/2 males, CD2F1 (Balb/c females×DBS/2 males) and B6C3fl (C57BL/6×C3H) were bred at Wayne State University from strains obtained from the Frederick Cancer Research Facility, Frederick, Maryland or purchased from commercial suppliers.
# (§2) Tumors: Murine Tumor: P388 and an adriamycin-resistant (ADR) subline P388/ADR leukemia and the following transplantable solid tumors of mice were used for in vivo testing: B16 melanoma (B16), pancreatic ductal adenocarcinoma No. 03 (Pane 03), colon adenocarcinoma No. 38 (colo 38), lung carcinoma No. 12 (LC 12), mammary ductal adenocarcinoma No. 16/C (Mam16C) and an adriamycin-resistant subline Mam16C/ADR. Human tumor: A single human tumor, mammary carcinoma MX-1 was used for in vivo testing. All tumors are in the Developmental Therapeutics Program frozen tumor respository, maintained by the Biological Testing Branch, Frederick Maryland. Each has a detailed description, code identification number, and list of references at the National Tumor Repository. […]
# (§3) Quantitative end points used to assess antitumor activity included % Increased Life Span (% ILS), Tumor Cell Kill (Log10 kill), and Tumor Growth Inhibition (T/C). […]
# (§4) The log10 cell kill was calculated from the following formula: [formula] where T-C is the tumor difference in the median day of death between the treated (T) and the control (C) groups and Td is the tumor doubling time (in days), the latter estimated from the best fit straight line from a log-linear growth plot of the control-group tumors in exponential growth. […]
# (§5) Tumors were measured with a caliper once or twice weekly (as needed) until either tumors exceeded 1600 mg or cure was assured. […] When the control group tumors reached approximately 750-1500 mg in size (median of group), the median tumor weight of each group was determined (including zeros). […] The % T/C was calculated from the following formula for solid murine tumor models: [formula] where T and C are median tumor weights of the treatment and control groups, respectively. […]
# [2] = test system: adriamycin-resistant subline Mam16C/ADR; assay: In vivo antitumor assay, Mam16C/ADR; details: drug iv, qd 1,3,5, exp 1120A
# Description: as §1, §2, §3, §4, §5
# [3] = test system: adriamycin-resistant (ADR) subline P388/ADR leukemia; assay: In vivo antitumor assay, P388/ADR(iv); details: drug iv
# Description: as §1
# Tumors: Murine Tumor: P388 and an adriamycin-resistant (ADR) subline P388/ADR leukemia and the following transplantable solid tumors of mice were used for in vivo testing: B16 melanoma (B16), pancreatic ductal adenocarcinoma No. 03 (Pane 03), colon adenocarcinoma No. 38 (colo 38), lung carcinoma No. 12 (LC 12), mammary ductal adenocarcinoma No. 16/C (Mam16C) and an adriamycin-resistant subline Mam16C/ADR. Human tumor: A single human tumor, mammary carcinoma MX-1 was used for in vivo testing. All tumors are in the Developmental Therapeutics Program frozen tumor respository, maintained by the Biological Testing Branch, Frederick Maryland. Each has a detailed description, code identification number, and list of references at the National Tumor Repository. Murine tumors were maintained in the mouse strain of origin and were transplanted in the appropriate F1 hydrid (or the strain of origin) for therapy trials. Human mammary carcinoma MX-1 (MX1) was maintained as a subcutaneous implant in either athymic Swiss (Cr: NIH(S)-nu) or athymic random bred (NCR-nu) mice and transplanted in NCR-nu for therapy trials.
# For P388 and P388/ADR leukemia studies the tumor cells were implanted either interperitoneally (IP) or intravenously (IV) on day zero and treatment was started on day one. For B16 melanoma (B16) studies, the tumor cells were implanted IP on day zero and treatment was started on day one. Titered controls were also included to facilitate the calculation of tumor cell kill. For mammary carcinoma MX-1 studies, tumors were implanted with 1) subcutaneously (sc) (14-mg fragment of sc donor tumor) in the axillary region or 2) under the subrenal capsule (SRC) (10×10×10 ocular micrometer unit fragment of sc donor tumor). Treatment started on the day after subrenal capsule tumor implant or when the subcutaneous tumor implant had reached 100-700 mg.
# Quantitative end points used to assess antitumor activity included % Increased Life Span (% ILS), Tumor Cell Kill (Log10 kill), and Tumor Growth Inhibition (T/C). Long Term Survivors (45 or 60 day) were excluded from calculations of %ILS and Tumor Cell Kill.
# Endpoints were calculated as follows: [formula] where Dt is the median day of death for treated and Dc is the median day of death for control groups. A % ILS ≥20 or ≥25 for P388 and B16 intraperitoneal models, respectively, is indicative of a significant degree of antitumor activity. A % ILS ≥75 or ≥50 for P388 and B16 intraperitoneal models, , respectively, is indicative of a high degree of antitumor activity and is the level used by National Cancer Institute to justify further development if other requirements are met (termed DN-2 level activity). Minimum quantitative activity limits for additional P388 models (e.g. P388/ADR and P388, IV) have not been defined. However, the activity limits specified for the intraperitoneal models may be applied as in the majority of instances the intraperitoneal models are found to be signficantly less challenging.
# The log10 cell kill was calculated from the following formula: [formula] where T-C is the tumor difference in the median day of death between the treated (T) and the control (C) groups and Td is the tumor doubling time (in days), the latter estimated from the best fit straight line from a log-linear growth plot of the control-group tumors in exponential growth. The conversion of the T-C values to log10 cell kill is possible because the Td for tumors regrowing post-treatment approximated the Td values of the tumors in untreated control mice.
# [4] = In vivo antitumor assay, P388(iv); details: mouse, in vivo, drug iv, qd 1-3, exp 1155A
# Description: as §1
# as §2, with “Repository. Murine tumors were maintained in the mouse strain of origin and were transplanted in the appropriate F1 hydrid (or the strain of origin) for therapy trials.” for “Repository.”
# as §3
# (§6) Endpoints were calculated as follows: [formula] where Dt is the median day of death for treated and Dc is the median day of death for control groups. […] Minimum quantitative activity limits for additional P388 models (e.g. P388/ADR and P388, IV) have not been defined. […]
# as §4
# [5] = test system: P388 leukemia; assay: In vivo antitumor assay, P388(iv); details: drug iv, qd 1-3, exp 1155A
# Description: as §1
# as §2, with “Repository. Murine tumors were maintained in the mouse strain of origin and were transplanted in the appropriate F1 hydrid (or the strain of origin) for therapy trials.” for “Repository.”
# as §3, §6, §4
# [6] = In vivo antitumor assay, LC12(sc); details: mouse, in vivo, drug iv, qd 3,5, exp 1161, MTD not achieved, maximum dose tested
# Description: as §1
# as §2, with “Repository. Murine tumors were maintained in the mouse strain of origin and were transplanted in the appropriate F1 hydrid (or the strain of origin) for therapy trials.” for “Repository.”
# as §3
# Tumors were measured with a caliper once or twice weekly (as needed) until either tumors exceeded 1600 mg or cure was assured. […] When the control group tumors reached approximately 750-1500 mg in size (median of group), the median tumor weight of each group was determined (including zeros). […] The % T/C was calculated from the following formula for solid murine tumor models: [formula] where T and C are median tumor weights of the treatment and control groups, respectively. […] By convention the T/C value for the mammary carcinoma MX-1 models is calculated by the parameter of change in tumor weight .
compound,measurement,setting,value
"Cc1cc(-c2c(F)cc3c4nn(CCN(C)C)c(=O)c-4cn(C4CC4)c3c2F)cc(C)n1.O=C(O)/C=C/C(=O)O [Example 1, 5-Cyclopropyl-6,8-difluoro-2,5-dihydro-2-[2-(dimethylamino)-ethyl]-7-(2,6-dimethyl-4-pyridinyl)-3H-pyrazolo[4,3-c]quinolin-3-one (E)-2-butendioate (1:1)]",MTD,[1],58 mg/kg
same,Log Kill,[2],0.50
same,T/C %,[2],26%
same,ILS %,"[3]; qd 1-3, exp 1149B",27%
same,Log Kill,"[3]; qd 1-3, exp 1149B",1.3
same,ILS %,"[3]; qd 1-5, exp 1073B",14.3%
same,Log Kill,"[3]; qd 1-5, exp 1073B",0.93
same,MTD,[4],37 mg/kg
same,ILS %,[5],82%
same,Log Kill,[5],5.4
same,MTD,[6],> 35 mg/kg
